Measurements as given in article PMC3350394, “Kinetic analysis and test-retest variability of the radioligand [^11C](R)-PK11195 binding to TSPO in the human brain - a PET study in control subjects” (EJNMMI Research, 2012).
“And” between values parts separate entries of the source, which are not always exact repeats. Identical values can stand only once.

Biological target: TSPO (Homo sapiens, UniProt P30536)
Experiment: PET, kinetic compartment analysis (1TCM, 2TCM) with metabolite-corrected arterial input function
Conditions: for BPND (k3/k4) Mean: mean of test and retest; for BPND (k3/k4) Retest / BPND (k3/k4) Test / VT (2TCM): mean(SD); for BPND (k3/k4) Retest / BPND (k3/k4) Test: 6 subjects; for ICC: BPND test-retest
Experimental: Each subject was placed recumbent with the head in the PET system. A head fixation system with an individual plaster helmet was used. A cannula was inserted into the left radial artery and another into the right antecubital vein. A sterile phosphate buffer (pH = 7.4) containing radioligand was injected as a bolus over 2 s into the cubital vein. The cannula was then immediately flushed with a 10-mL saline solution. In each individual, the measurement was repeated after approximately 6 weeks.
The PET system used was ECAT Exact HR 47 (Siemens/CTI, Knoxville, TN, USA), with an in-plane and an axial resolution of 3.6 and 4.0 mm, respectively, full width at half maximum (FWHM). The radioactivity in the brain was measured continuously for 60 min using a pre-programmed sequence of […] (20 s × 9, 30 s × 6, 180 s × 5, 300 s × 5). […] The images were reconstructed with a Hanning filter (FWHM = 2 mm) in a matrix of 128 × 128 × 47 voxels, yielding a voxel size of 2.03 × 2.03 × 3.125 mm. Attenuation correction was done using transmission scan data obtained for each subject.
[^11C](R)-PK11195 binding to TSPO was quantified using kinetic compartment analyses with the metabolite-corrected arterial plasma curve as input function. Two compartment models (one- and two-tissue) were used to fit the model to the TACs. The fractional volume of blood present in the tissue volume and bolus time were estimated for each individual, each occasion, by fitting the whole brain TAC with a two-tissue compartment model.
The one-tissue compartment model (1TCM) describes one compartment which is a composite of free, non-specifically and specifically bound radioligands. The two rate constants, K1 and k2, describe the influx and efflux rates across the blood-brain barrier, respectively.
The two-tissue compartment model (2TCM) has been described in detail in the literature. The two-tissue compartments are defined as the radioactivity concentration of a nondisplaceable radioligand in the brain (CND) and the radioactivity concentration of a radioligand specifically bound to receptors (CB). In this model, four rate constants (K1, k2, k3 and k4) explain the time curves for radioligand in the brain. In short, the four rate constants were determined by curve fitting with a weighted non-linear least squares fitting technique with constraint-restricting parameters between 0 and 0.9. Each initial value for K1, k2, k3 and k4 was 0.5, 0.1, 0.5 and 0.5, respectively. The local minimum of the sum of the squared residuals was determined by iteration.
Regional [^11C](R)-PK11195 binding was expressed using the concept of the total distribution volume (VT), which is defined by the following equation, using kinetic constants obtained from 2TCM [16, 20, 21].
Specific [^11C](R)-PK11195 binding was expressed as binding potential relative to nondisplaceable binding (BPND) as follows:
The fractional volume of blood present in the tissue volume was determined for each individual, each occasion. It was obtained by fitting whole brain TAC with a 2TCM with six parameters (K1, k2, k3, k4, fractional blood volume (VB) and time shift between plasma input function and PET TAC (tbolus)) and parameters VB and tbolus subsequently applied for each brain region.
The reproducibility of two successive PET measurements was analysed by means of descriptive statistics (mean, range, SD, coefficient of variance (CV), difference in measurement (error in percent) and intra-class correlation coefficient (ICC)). The ICC was calculated from the between-subject and within-subject variations, using the expression: […]

[1] = brainstem, BPND test-retest difference in measurements
[2] = brainstem, VT (2TCM) test-retest
[3] = caudate (L), BPND test-retest difference in measurements
[4] = caudate (R), BPND test-retest difference in measurements
[5] = cerebellum, BPND test-retest difference in measurements
[6] = cerebellum, VT (2TCM) test-retest
[7] = grey matter, cortex, BPND test-retest difference in measurements
[8] = grey matter, 1TCM, retest (2), individual subjects 1-6
[9] = grey matter, 1TCM, test (1), individual subjects 1-6
[10] = grey matter, 1TCM, test (1), mean(SD/CV) of 6 subjects
[11] = grey matter, 2TCM, retest (2), individual subjects 1-6
[12] = grey matter, 2TCM, retest (2), mean(SD/CV) of 6 subjects
[13] = grey matter, 2TCM, test (1), individual subjects 1-6
[14] = grey matter, 2TCM, test (1), mean(SD/CV) of 6 subjects
[15] = grey matter, VT (2TCM) test-retest
[16] = putamen (L), BPND test-retest difference in measurements

Chain of TSPO (P30536 whole entry): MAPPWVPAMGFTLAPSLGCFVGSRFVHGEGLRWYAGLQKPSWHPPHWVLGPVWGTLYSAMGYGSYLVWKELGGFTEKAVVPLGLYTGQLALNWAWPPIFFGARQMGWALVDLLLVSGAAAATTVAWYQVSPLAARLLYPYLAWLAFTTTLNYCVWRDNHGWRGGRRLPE

CC[C@@H](C)N([11CH3])C(=O)c1cc2ccccc2c(-c2ccccc2Cl)n1 [[^11C](R)-PK11195]
influx rate constant K1 (2TCM, range): 0.05 to 0.09
BPND throughout the human brain, range (2TCM, regional means): 1.11 to 2.21
BPND (k3/k4) Mean (brainstem, 2TCM): 2.09
BPND (k3/k4) Retest (brainstem, 2TCM): 2.18(0.33)
BPND (k3/k4) Test (brainstem, 2TCM): 2.00(0.35)
ICC (brainstem): -0.6
Error % mean(SD) [1]: -13(31) %
Error range (%) [1]: -45 to 26%
Error % mean(SD) [2]: -13(10) %
Error range (%) [2]: -29 to -1%
VT (2TCM) (brainstem, retest): 0.74 (0.16)
VT (2TCM) (brainstem, test): 0.86(0.18)
BPND (k3/k4) Mean (caudate (L), 2TCM): 1.68
BPND (k3/k4) Retest (caudate (L), 2TCM): 1.84(0.93)
BPND (k3/k4) Test (caudate (L), 2TCM): 1.52(0.43)
ICC (caudate (L)): -0.05
Error % mean(SD) [3]: -27(66) %
Error range (%) [3]: -133 to 42%
BPND (k3/k4) Mean (caudate (R), 2TCM): 1.77
BPND (k3/k4) Retest (caudate (R), 2TCM): 2.21(1.19)
BPND (k3/k4) Test (caudate (R), 2TCM): 1.33(0.68)
ICC (caudate (R)): 0.01
Error % mean(SD) [4]: -96(126) %
Error range (%) [4]: -288 to12%
BPND (k3/k4) Mean (caudate, 2TCM): 1.65
BPND (k3/k4) Retest (caudate, 2TCM): 1.92(0.87)
BPND (k3/k4) Test (caudate, 2TCM): 1.37(0.55)
ICC (caudate): 0.01
Error range (%) (caudate, BPND test-retest difference in measurements): -155 to 30%
Error % mean(SD) (caudate, VT (2TCM) test-retest): 25(36) %
Error range (%) (caudate, VT (2TCM) test-retest): -35 to 62%
VT (2TCM) (caudate, retest): 1.06 (0.24)
VT (2TCM) (caudate, test): 0.88(0.13)
BPND (k3/k4) Mean (cerebellum, 2TCM): 1.33
BPND (k3/k4) Retest (cerebellum, 2TCM): 1.37(0.24)
BPND (k3/k4) Test (cerebellum, 2TCM): 1.29(0.19)
ICC (cerebellum): 0.07
Error % mean(SD) [5]: -8% and -8(20) %
Error range (%) [5]: -21 to 32%
Error % mean(SD) [6]: -1(18) %
Error range (%) [6]: -32 to 24%
VT (2TCM) (cerebellum, retest): 0.72 (0.16)
VT (2TCM) (cerebellum, test): 0.74(0.18)
BPND (k3/k4) Mean (grey matter, cortex, 2TCM): 1.55
BPND (k3/k4) Retest (grey matter, cortex, 2TCM): 1.59(0.29)
BPND (k3/k4) Test (grey matter, cortex, 2TCM): 1.50(0.27)
ICC (grey matter, cortex): 0.47
Error % mean(SD) [7]: 5% and 5(18) %
Error range (%) [7]: -24 to 25%
K1 [8]: 0.094 mL/cc/min and 0.035 mL/cc/min and 0.044 mL/cc/min and 0.045 mL/cc/min and 0.056 mL/cc/min and 0.057 mL/cc/min
k2 [8]: 0.111 min⁻¹ and 0.086 min⁻¹ and 0.108 min⁻¹ and 0.091 min⁻¹ and 0.099 min⁻¹ and 0.118 min⁻¹
k2 (grey matter, 1TCM, retest (2), mean(SD/CV) of 6 subjects): 0.102(0.012/12) min^-1
K1 [9]: 0.062 mL/cc/min and 0.037 mL/cc/min and 0.042 mL/cc/min and 0.074 mL/cc/min and 0.054 mL/cc/min
k2 [9]: 0.086 min⁻¹ and 0.087 min⁻¹ and 0.111 min⁻¹ and 0.106 min⁻¹ and 0.116 min⁻¹ and 0.096 min⁻¹
K1 [10]: 0.055(0.014/25) mL/cc/min
k2 [10]: 0.100(0.012/12) min^-1
K1 [11]: 0.077 mL/cc/min and 0.129 mL/cc/min and 0.049 mL/cc/min and 0.067 mL/cc/min and 0.060 mL/cc/min and 0.073 mL/cc/min
k2 [11]: 0.287 min⁻¹ and 0.318 min⁻¹ and 0.246 min⁻¹ and 0.340 min⁻¹ and 0.239 min⁻¹ and 0.234 min⁻¹
k3 [11]: 0.059 min⁻¹ and 0.111 min⁻¹ and 0.062 min⁻¹ and 0.068 min⁻¹ and 0.065 min⁻¹
k4 [11]: 0.041 min⁻¹ and 0.076 min⁻¹ and 0.035 min⁻¹ and 0.032 min⁻¹ and 0.045 min⁻¹ and 0.044 min⁻¹
K1 [12]: 0.076 (0.028/37) mL/cc/min
k2 [12]: 0.277(0.045/16) min^-1
k3 [12]: 0.071(0.02/28) min^-1
k4 [12]: 0.046(0.016/34) min^-1
K1 [13]: 0.082 mL/cc/min and 0.048 mL/cc/min and 0.054 mL/cc/min and 0.094 mL/cc/min and 0.072 mL/cc/min
k2 [13]: 0.220 min⁻¹ and 0.245 min⁻¹ and 0.221 min⁻¹ and 0.264 min⁻¹ and 0.252 min⁻¹
k3 [13]: 0.061 min⁻¹ and 0.055 min⁻¹ and 0.040 min⁻¹ and 0.038 min⁻¹ and 0.076 min⁻¹ and 0.058 min⁻¹
k4 [13]: 0.033 min⁻¹ and 0.038 min⁻¹ and 0.023 min⁻¹ and 0.029 min⁻¹ and 0.067 min⁻¹ and 0.026 min⁻¹
K1 [14]: 0.072(0.018/25) mL/cc/min
k2 [14]: 0.237(0.019/8) min^-1
k3 [14]: 0.055(0.014/25) min^-1
Error % mean(SD) [15]: -6(17) %
Error range (%) [15]: -36 to 15%
VT (2TCM) (grey matter, retest): 0.70 (0.17)
VT (2TCM) (grey matter, test): 0.76(0.18)
BPND (k3/k4) Mean (putamen (L), 2TCM): 1.44
BPND (k3/k4) Retest (putamen (L), 2TCM): 1.60(0.67)
BPND (k3/k4) Test (putamen (L), 2TCM): 1.28(0.31)
ICC (putamen (L)): 0.02
Error % mean(SD) [16]: -30(59) %
Error range (%) [16]: -145 to 23%
